Laboratory results published in patent US10045939B2, “Unit doses, aerosols, kits, and methods for treating heart conditions by pulmonary administration” (InCarda Therapeutics, Inc., priority 2009, dated 2018).
Structures can show the parent of a compound that is named as a salt. Where two headings read alike, the source gives them in different places.

Legend:
[1] = system: induced supraventricular tachycardia; experiment: Induced supraventricular tachycardia (SVT) model in anesthetized dogs, intratracheal (IT) vs intravenous administration; type: in vivo, dog; conditions: for cardiovascular effect when given intratracheally (summary): intratracheal, summary of study
Protocol: A venous catheter was placed in a peripheral vessel (i.e., cephalic) for administration of anesthetic(s). For anesthesia induction, all animals were given a combination of diazepam (˜0.5 mg/kg) and ketamine (˜10 mg/kg) intravenously through this venous catheter. Anesthesia was sustained until completion of the study with an intravenous infusion of pentobarbital (5-15 mg/kg/hr). Following induction, animals were endotracheally intubated and mechanically ventilated (˜12 breaths/min with a tidal volume of 200-300 mL).
Subsequently, a cut-down on a jugular vein permitted the introduction of a pacing lead into the right atrium. Similarly, for arterial pressure monitoring, a solid-state micromanometer catheter (Millar Instruments) was advanced into the aortic root via a cut-down over an artery (e.g., femoral, carotid). Transthoracic electrodes forming ECG lead II was placed. For vehicle/test article delivery, a 4F catheter was introduced through the trachea and wedged into a small airway, and a venous catheter was placed in a peripheral vessel (i.e., cephalic).
Following instrumentation/hemodynamic stabilization (for at least 15 minutes), right atrial pacing (5-10 V, 40 Hz, 2 ms pulses) was established in order to induce supraventricular tachycardia (SVT); pacing and SVT was sustained throughout the duration of the experiments. Approximately 5 minutes after onset of SVT and while monitoring ECG/arterial pressure continuously, the animals were administered three escalating doses (one at a time) of a test article; each dose was delivered as a bolus (˜3 mL) directly into a small airway through the intratracheal catheter (IT). Following dosing, the heart-rate (HR) and arterial pressure response were monitored for 15 minutes.
Subsequently (once the response to three IT doses had been recorded), hemodynamic recovery was allowed for approximately 30 minutes, and the electrocardiographic/hemodynamic response to the highest test-article dose was re-evaluated; however, for comparison purposes, this dose was delivered intravenously (IV).
Overall, two groups/test-articles were studied, and up to two animals were assigned to each group (n=2/group): one group received esmolol HCL (0.5-1.0 mg/kg, ESM), while the other received adenosine (0.25-1.0 mg/kg, ADN); only one test article was administered to per animal.

[2] = system: induced atrial fibrillation; experiment: Induced atrial fibrillation model in anesthetized dogs, intratracheal (IT) administration; type: in vivo, dog; conditions: for cardiovascular effect when given intratracheally (summary): summary of study; for conversion of atrial fibrillation to normal sinus rhythm: pulmonary (intratracheal/inhalation route)
Protocol: A venous catheter was placed in a peripheral vessel (i.e., cephalic) for administration of anesthetic. For anesthesia induction, all animals were given morphine sulfate (˜2 mg/kg) and a bolus of alpha chloralose (˜100 mg/kg) intravenously through the venous catheter. Anesthesia was sustained with alpha chloralose (35-75 mg/kg/hour IV), until completion of the study (<2 hours). Following induction, animals were endotracheally intubated and mechanically ventilated (˜12 breaths/minute with a tidal volume of 200-300 mL). Subsequently, a cut-down on a jugular vein permitted introduction of a pacing lead into the right atrium. Transthoracic electrodes forming ECG lead II were placed. For test/vehicle article delivery, a 4F catheter was introduced through the trachea and wedged into a small airway, and a venous catheter was placed in a peripheral vessel (i.e., cephalic). Following instrumentation and hemodynamic stabilization (for at least 15 minutes), phenylephrine was continuously infused (2 ug/kg/min IV) to elevate the systemic arterial pressure and increase vagal (parasympathetic) efferent activity for the duration of the study. Approximately 5 min after administration of this parasympathomimetic was started; the following experiments were performed: First, the right atrium was paced (20 V, 40 Hz, 4 ms pulse) for 15 minutes, and following pacing discontinuation, atrial fibrillation ensued. Approximately 3 minutes after pacing was stopped and atrial fibrillation was observed, the animals were given vehicle (˜3 mL) intra-tracheally (IT); the duration between dosing and, (if observed) the return to sinus rhythm and/or the ventricular rate was noted. Observations were made for up to 10 minutes. Subsequently, atrial fibrillation was re-established via 15-minute pacing cycle(s), as described above. Once pacing was discontinued and atrial fibrillation was observed/stable for 3 minutes, the animals were administered the vehicle or one of the test articles, delivered as a bolus (˜3 mL) directly into a small airway through the intratracheal catheter. Vehicle was only water. In the case of flecainide as the test article, the concentration was 15 mg of flecainide/3 ml of water. Following dosing, the duration between cessation of administration and, if observed, return to sinus rhythm and/or ventricular rate were noted; observations were made for up to 10 minutes.

physchem = type: physicochemical
Description: To evaluate the solubilities of flecainide acetate and diltiazem hydrochloride in water and to evaluate the acceptability of taste and aftertaste of these two drugs for administration as liquid aerosols.

[3] = Preformulation: properties of solutions in water (pH, isotonicity, appearance); type: physicochemical
Protocol: To evaluate the solubilities of flecainide acetate and diltiazem hydrochloride in water and to evaluate the acceptability of taste and aftertaste of these two drugs for administration as liquid aerosols. The following solution strengths were prepared for taste evaluation: (1) diltiazem hydrochloride—50 mg/ml solution in distilled water; and (2) flecainide acetate—30 mg/ml solution in distilled water.

[4] = human, in vivo
Protocol: The following solution strengths were prepared for taste evaluation: (1) diltiazem hydrochloride—50 mg/ml solution in distilled water; and (2) flecainide acetate—30 mg/ml solution in distilled water.
The Aeroneb®GO device was used because it is a simple-to-use device developed specifically for patients who require respiratory therapy in and away from the home. The device can be used by patients of all ages (infant through adult) and aerosolizes solutions intended for inhalation. Aeroneb® Go works with either an AC wall controller or a battery pack, and can be cleaned with soap and water. More details about this device can be obtained at www.aerogen.com.
Number of subjects: 2 healthy male volunteers
Water was poured into the nebulizer cup, and the nebulizer was turned on. The visible cloud of aerosol generated when the nebulizer was turned on was treated as a qualitative aerosol standard.
About 1 ml of the 30 mg/ml solution was poured into the cup of the nebulizer. The nebulizer was turned on and the resulting aerosol was similar to but not as dense as the aerosol formed with the water alone.
The nebulizer was then placed in the mouth and switched on. Deep lung inhalation was performed through the nebulizer. About 40 μl (˜1.2 mg of flecainide acetate) of the test solution was inhaled. The inhaled dose was sub-therapeutic in nature as it was much less than the regular 100 mg administered as tablets. Flecainide acetate is also available as an IV injection in Europe as 10 mg/ml strength in 15 ml ampoules.
About 1 ml of the 50 mg/ml solution was poured into the cup of the nebulizer. The nebulizer was turned on and the resulting aerosol was similar to but not as dense as the aerosol formed with the water alone.
The nebulizer was then placed in the mouth and a switched on. Deep lung inhalation was performed through the nebulizer. About 40 μl (˜2 mg of diltiazem hydrochloride) of the test solution was inhaled. The inhaled dose was sub-therapeutic in nature as it was much less than the IV injection marketed in the U.S. as 5 mg/ml in 5 ml vials.

[5] = cited from earlier work
[6] = pulmonary dose between 2-4 mg/kg body weight
[7] = pulmonary dose 0.25 mg/kg body weight

COC(=O)CCc1ccc(OCC(O)CNC(C)C)cc1 (stereo not drawn) [esmolol, esmolol HCL]
period of AV block (FIGS. 17, 18) ([1]; 0.5 mg/kg administered via the lung): AV block induced
period of AV block (FIG. 20) ([1]; 0.75 mg/kg administered via the lung): AV block induced
drop in MAP ([1]; delivered via the lung, any of the doses): did not cause a drop in MAP
cardiovascular effect when given intratracheally (summary) [1]: probable effect
PR intervals in the ECG traces ([1]; via the lung (IT), elevating doses): affecting the PR intervals
electrophysiological effects ([1]; via the lung (IT), higher dose 1.0 mg/kg): did not produce the same electrophysiological effects
AV block ([1]; via the lung (IT), lower doses): 2nd degree AV block

O=C(NCC1CCCCN1)c1cc(OCC(F)(F)F)ccc1OCC(F)(F)F (stereo not drawn) [flecainide, flecainide acetate]
conversion of Afib (ECG trace, FIG. 12) ([2]; 2 mg/kg body weight): Afib converting as soon as dosing occurred
conversion of Afib to normal sinus rhythm (ECG trace, FIG. 11) ([2]; 4 mg/kg body weight): Afib converting into normal sinus rhythm
cardiovascular effect when given intratracheally (summary) ([2]; intratracheal): clear cardiovascular effect
conversion of atrial fibrillation to normal sinus rhythm ([2]; dose not stated): rapidly converted the Atrial Fibrillation to normal sinus rhythm
adverse events such as proarrhythmia [2, 6]: Neither dogs exhibited any known adverse events such as proarrhythmia
conversion of induced atrial fibrillation to normal sinus rhythm [2, 6]: converted the induced atrial fibrillation to normal sinus rhythm
drop in mean arterial pressure [2, 6]: None to minimal drop in mean arterial pressure
ventricular rate ([2]; pulmonary, large doses): slower ventricular rates
solubility (physchem; water): ~30 mg/mL
pH of solution in water ([3]; 2.6 mg/mL solution in water): 5.0
isotonicity of solution in water (% to isotonic) ([3]; 30 mg/mL in water): about 50%
appearance of solution ([3]; 30 mg/ml solution in distilled water): clear with no visible particulate matter
burning sensations in the mouth, throat, or lungs [4]: No burning sensations was felt in the mouth, throat, or lungs
visible adverse events [4]: No visible adverse events were observed

CN(CCOc1ccc(NS(C)(=O)=O)cc1)CCc1ccc(NS(C)(=O)=O)cc1 [dofetilide]
heart rate ([2]; escalating pulmonary doses of 10-40 mcg/kg body weight): minor reduction in heart rate
ventricular rate ([2]; intratracheal, dose not stated): marginally slowed the ventricular rate
cardiovascular effect when given intratracheally (summary) ([2]; intratracheal): probable effect

CCCCCCCCCCCCCCCC(=O)OC[C@H](COP(=O)([O-])OCC[N+](C)(C)C)OC(=O)CCCCCCCCCCCCCCC [DPPC, dipalmitoylphosphatidylcholine]
solubility of the phospholipid in water [5]: about 10^−10 mol/L

COc1ccc([C@@H]2Sc3ccccc3N(CCN(C)C)C(=O)[C@@H]2OC(C)=O)cc1.Cl [diltiazem, diltiazem hydrochloride]
mean arterial blood pressure (MAP) ([2]; dog, in vivo, 0.25 mg/kg): notable drop in mean arterial blood pressure
heart rate ([2]; inhalation route, dose not stated): reduced heart rate
cardiovascular effect when given intratracheally (summary) ([2]; intratracheal): clear cardiovascular effect
conversion of atrial fibrillation to normal sinus rhythm ([2]; dose not stated, hydrochloride): rapidly converted the Atrial Fibrillation to normal sinus rhythm
PQ interval [2, 7]: prolonged the PQ
heart rate [2, 7]: slowed down marginally
conversion of induced atrial fibrillation to normal sinus rhythm ([2]; pulmonary dose 0.25 mg/kg body weight, hydrochloride, 0.25 mg/kg): converted the induced atrial fibrillation to normal sinus rhythm
conversion of induced atrial fibrillation to normal sinus rhythm ([2]; pulmonary dose 0.25 mg/kg body weight, listed as diltiazem HCl, hydrochloride, 0.25 mg/kg): Afib converting
PR interval ([1]; IV or pulmonary route (0.25 mg/kg per FIGS. 14 and 15)): prolonged the PR interval
timing of the electrophysiological change ([1]; IV vs pulmonary): comparable between IV and pulmonary
Mean Arterial Pressure (MAP) ([1]; dog, in vivo, iv, 0.25 mg/kg): dropped significantly in both cases
comparison of pulmonary and IV routes ([1]; pulmonary vs IV (0.25 mg/kg per FIGS. 14 and 15)): comparable in all aspects
solubility (physchem): > 90 mg/mL
pH of solution in water ([3]; 3.5 mg/mL solution in water): 6.7
isotonicity of solution in water (% to isotonic) ([3]; 50 mg/mL in water): about 80%
appearance of solution ([3]; 50 mg/ml solution in distilled water): clear with no visible particulate matter
burning sensations in the mouth, throat, or lungs [4]: No burning sensations was felt in the mouth, throat, or lungs
visible adverse events [4]: No visible adverse events were observed

Nc1ncnc2c1ncn2[C@@H]1O[C@H](CO)[C@@H](O)[C@H]1O [adenosine]
effect on the heart ([1]; administered via the lung): did not have any effect on the heart
cardiovascular effect when given intratracheally (summary) [1]: clear response was not observed
